The source made the active and inactive calls. The rule behind the calls is not given here.
Molecular target: Influenza A virus M2 proton channel (A/TW/4845/1999 H1N1)
Assay: M2 proton channel binding, NMR based, influenza A virus H1N1 strain (AID 1549)
Settings: NMR binding screen, M2 protein

| SMILES | Kd |
| --- | --- |
| NC(=O)CS(=O)(=O)c1ccc2ccccc2c1 | > 4 mM (inactive) |
| Oc1ccccc1-c1cc(C(F)(F)F)[nH]n1 | > 4 mM (inactive) |
| COc1ccc(C(=O)/C=C2\NC(=S)NC2=O)cc1 | > 4 mM (inactive) |
| c1ccc(-c2noc(-c3cccnc3)n2)nc1 | > 4 mM (inactive) |
| Cc1cc(=O)cc(C)n1-c1ccccc1N1CCOCC1 | > 4 mM (inactive) |
| O=C1C2C3C=CC(C3)C2C(=O)N1c1ccccn1 (stereo unspecified) | > 4 mM (inactive) |
| CSc1ccc(/C=N/n2c(C)nnc2C)cc1 | > 4 mM (inactive) |
| OCc1ccc(-n2cccn2)cc1 | > 4 mM (inactive) |
| O=c1cccc2n1C[C@H]1CNCC2C1 | > 4 mM (inactive) |
| O=c1cc(O)nc(SCc2ccccc2)[nH]1 | > 4 mM (inactive) |
| O=C(/C=C/c1ccco1)NC1=NCCS1 | > 4 mM (inactive) |
| COc1cc2c3cc1Oc1cc(ccc1O)C[C@@H]1c4c(cc(OC)c(O)c4Oc4ccc(cc4)C[C@@H]3N(C)CC2)CC[N+]1(C)C | > 4 mM (inactive) |
| OCC1CNc2ccccc2O1 (stereo unspecified) | > 4 mM (inactive) |
| O=C(O)c1cccc(-n2cccc2)c1 | > 4 mM (inactive) |
| O=c1c(O)cccc2cc(O)c(O)c(O)c12 | > 4 mM (inactive) |
| NC(=O)c1ccc2c(c1)OCO2 | > 4 mM (inactive) |
| Cc1cc(C)n(CC(=O)O)n1 | > 4 mM (inactive) |
| Cc1nnsc1C(=O)Nc1ccc(C(N)=O)cc1 | > 4 mM (inactive) |
| CCOC(=O)Cn1cnc2sc3c(c2c1=O)CCC3 | > 4 mM (inactive) |
| COC(=O)Nc1c(C)n(C)n(-c2ccccc2)c1=O | > 4 mM (inactive) |
| COc1ccc(S(=O)(=O)N2CCC(C(N)=O)CC2)cc1 | > 4 mM (inactive) |
| O=C1NC(=O)C(c2ccccc2)C(=O)N1 | > 4 mM (inactive) |
| Cn1nccc1N | > 4 mM (inactive) |
| CNC(=O)c1ccccc1N | > 4 mM (inactive) |
| CC(=O)N1CCC(NC2CCCCCC2)CC1 | > 4 mM (inactive) |

| SMILES | Kd |
| --- | --- |
| O=c1[nH]cnc2nn(-c3ccccc3)nc12 | > 4 mM (inactive) |
| CS(=O)(=O)c1cccc(C(=O)Nc2nccs2)c1 | > 4 mM (inactive) |
| N#CCSc1nc2ccccc2c(=O)n1-c1ccccc1 | > 4 mM (inactive) |
| COC(=O)N1CCN(c2ccc(OC)cc2)CC1 | > 4 mM (inactive) |
| O=C(O)c1cc(O)c(O)c(O)c1 | > 4 mM (inactive) |
| CCCCCC1C(=O)CCC1CC(=O)O (stereo unspecified) | > 4 mM (inactive) |
| O=C(Nc1cccnc1)c1c(F)c(F)c(F)c(F)c1F | > 4 mM (inactive) |
| C=CC(=O)N1CC2CC(C1)c1cccc(=O)n1C2 (stereo unspecified) | > 4 mM (inactive) |
| O=C(O)Cc1nc(-c2ccncc2)n[nH]1 | > 4 mM (inactive) |
| CC(=O)Nc1ccc(S(=O)(=O)Nc2cc(C)on2)cc1 | > 4 mM (inactive) |
| c1ccc(Cc2nnc3sc(-c4ccncc4)nn23)cc1 | > 4 mM (inactive) |
| CN(Cc1nc2ccccc2n1C)C(=O)c1cccs1 | > 4 mM (inactive) |
| Nc1ncnc(Nc2ccccc2C(F)(F)F)n1 | > 4 mM (inactive) |
| COc1cc2occc2c2oc(=O)ccc12 | > 4 mM (inactive) |
| CC(=O)c1c(C)n([O-])c2ccccc2[n+]1=O | > 4 mM (inactive) |
| Cn1c(=O)c2[nH]c(Nc3ccccc3)nc2n(C)c1=O | > 4 mM (inactive) |
| Nc1nnc(Cc2ccc(Cl)cc2)s1 | > 4 mM (inactive) |
| CCC(/C=C/[C@@H](C)[C@H]1CCC2C3CC=C4C[C@@H](O)CC[C@]4(C)C3CC[C@@]21C)C(C)C (stereo partly specified) | > 4 mM (inactive) |
| Cc1sc2nc[nH]c(=S)c2c1C | > 4 mM (inactive) |
| CC(=O)Nc1ccc(S(=O)(=O)NC(N)=O)cc1 | > 4 mM (inactive) |
| Nc1nc(=S)n2c(n1)oc1ccccc12 | > 4 mM (inactive) |
| NN1C(=O)/C(=C/c2ccc(O)c(O)c2)SC1=S | > 4 mM (inactive) |
| Clc1ccc2c(N3CCNCC3)ccnc2c1 | > 4 mM (inactive) |
| O=C(O)CSCc1ccc(Cl)cc1 | > 4 mM (inactive) |
| CC(=O)Nc1cc(O)cc(O)c1 | > 4 mM (inactive) |

| SMILES | Kd |
| --- | --- |
| OCC1CCN(c2ncccn2)CC1 | > 4 mM (inactive) |
| Cc1ccccc1NC(=O)CSc1ccnc(=O)[nH]1 | > 4 mM (inactive) |
| CCOc1ccc(C(=O)c2ccc(O)c(O)c2O)cc1 | > 4 mM (inactive) |
| COc1ccc(-c2nc(N)n(C(C)=O)n2)cc1 | > 4 mM (inactive) |
| COc1c(-c2coc3cc4c(cc3c2=O)CC(OC(C)=O)C(C)(C)O4)ccc2c1C=CC(C)(C)O2 (stereo unspecified) | > 4 mM (inactive) |
| CCOc1ccc(-c2c(=O)n(O)c3ccccc3[n+]2[O-])cc1 | > 4 mM (inactive) |
| NS(=O)(=O)c1ccc(N2CCCC2=O)cc1 | > 4 mM (inactive) |
| Clc1ccc(-c2noc(CN3CCCC3)n2)cc1 | > 4 mM (inactive) |
| Cc1nn(-c2ccccc2)nc1C(N)=O | > 4 mM (inactive) |
| COC(=O)Cc1csc(N)n1 | > 4 mM (inactive) |
| CC(=O)Nc1ccc2c(c1)CCC2=O | > 4 mM (inactive) |
| Cc1ccc(SCc2nc(-c3cccnc3)no2)cc1 | > 4 mM (inactive) |
| CC(C)NC(=O)c1cc(=O)n(C)c(=O)n1C | > 4 mM (inactive) |
| CCOC(=O)c1c(C)cc(O)c(C)c1O | > 4 mM (inactive) |
| COc1ccc(-c2c(O)c3c(OC)c4c(cc3oc2=O)OC(C)(C)CC4)cc1 | > 4 mM (inactive) |
| O=c1c2c(nc3nc(COc4ccccc4)[nH]n13)CCC2 | > 4 mM (inactive) |
| NC(C(=O)O)C(O)C(=O)O (stereo unspecified) | > 4 mM (inactive) |
| Cc1ccc(=O)[nH]c1 | > 4 mM (inactive) |
| Cc1c(-c2ccc(F)cc2)[n+](=O)c2c(n1[O-])CCC2 | > 4 mM (inactive) |
| N#Cc1nc(N2CCCCC2)nc(N2CCOCC2)n1 | > 4 mM (inactive) |
| C[n+]1cccc(C(=O)[O-])c1 | > 4 mM (inactive) |
| NC(=O)NCCCC(N)C(=O)O (stereo unspecified) | > 4 mM (inactive) |
| CC(=O)Nc1ccc(NC(C)=O)c(C(F)(F)F)c1 | > 4 mM (inactive) |
| Cc1nnc(N2CCN(c3ccccc3)CC2)[nH]c1=O | > 4 mM (inactive) |
| c1cncc(Cn2cccc2)c1 | > 4 mM (inactive) |

| SMILES | Kd |
| --- | --- |
| COc1cc2c(cc1OC)[C@@H]1C(=O)c3ccc4c(c3O[C@@H]1CO2)CC(C(C)C)O4 (stereo partly specified) | > 4 mM (inactive) |
| CCC(=O)OC1[C@@H]2CC3=C4CC(=O)O[C@@H](c5ccoc5)[C@]4(C)CCC3C(C)(C2=O)[C@@H](CC(=O)OC)C1(C)C (stereo partly specified) | > 4 mM (inactive) |
| Cc1ccc2[nH]c3nc(=S)[nH]nc3c2c1 | > 4 mM (inactive) |
| CC(=O)c1cccc(NS(=O)(=O)N(C)C)c1 | > 4 mM (inactive) |
| CCCCC(Nc1n[nH]c(=O)[nH]c1=O)C(=O)O (stereo unspecified) | > 4 mM (inactive) |
| Nc1cccc(CC(=S)N2CCOCC2)c1 | > 4 mM (inactive) |
| C=C1C([C@]2(C)C(CC(=O)OC)[C@@](C)(COC(C)=O)OC(=O)C[C@@H]2OC(C)=O)[C@@H](OC=O)[C@H](OC(=O)C(O)C(C)CC)[C@@]2(C)[C@H](c3ccoc3)CC(=O)C12O (stereo partly specified) | > 4 mM (inactive) |
| O=C(O)c1ccc2ccccc2n1 | > 4 mM (inactive) |
| Cc1cc(C)c(C(N)=O)c(=S)[nH]1 | > 4 mM (inactive) |
| CNC[C@@H](O)c1ccc(O)c(O)c1 | > 4 mM (inactive) |
| C(=C\c1ccccc1)/C=N/n1cnnc1 | > 4 mM (inactive) |
| CC(=O)Nc1ccc(Cl)c(C(N)=O)c1 | > 4 mM (inactive) |
| Clc1ccc(SCCn2cncn2)cc1 | > 4 mM (inactive) |
| COC1=CC(=O)C=C(OC)C1=O | > 4 mM (inactive) |
| O=C(O)c1cc2ccccc2cn1 | > 4 mM (inactive) |
| COc1ccc(S(N)(=O)=O)cc1 | > 4 mM (inactive) |
| CC(=O)Nc1ccn(-c2ccccc2)n1 | > 4 mM (inactive) |
| CC(=O)c1c(C)nc2ccccc2c1N | > 4 mM (inactive) |
| CN(C)S(=O)(=O)c1ccc(C(=O)NN)cc1 | > 4 mM (inactive) |
| CCN1CCn2c1nc(N1CCOCC1)nc2=O | > 4 mM (inactive) |
| O=C(O)CCSc1nc2ccccc2s1 | > 4 mM (inactive) |
| O=C(O)Cn1cc(C(=O)c2cccs2)c2ccccc21 | > 4 mM (inactive) |
| CNC(=O)C1CCCN(S(C)(=O)=O)C1 (stereo unspecified) | > 4 mM (inactive) |
| CCNC(=O)CC[C@H](N)C(=O)O | > 4 mM (inactive) |
| C=CC1=C(C)/C(=C/c2[nH]c(Cc3[nH]c(/C=C4\NC(=O)C(C)=C4C=C)c(C)c3CCC(=O)O)c(CCC(=O)O)c2C)NC1=O | > 4 mM (inactive) |

| SMILES | Kd |
| --- | --- |
| NC(=O)CSc1ncnc2ccccc12 | > 4 mM (inactive) |
| O=C(Nc1ccccc1)c1cnc2n(c1=O)CCS2 | > 4 mM (inactive) |
| Cc1n[nH]c(=S)n1-c1ccc(C(=O)O)cc1 | > 4 mM (inactive) |
| Cc1cc(O)cc(=O)n1CCCC(=O)O | > 4 mM (inactive) |
| CNc1nc(C)nc(-n2nc(C)cc2C)n1 | > 4 mM (inactive) |
| O=C1CC(=O)N(c2ccccc2F)C(=S)N1 | > 4 mM (inactive) |
| NCc1ccc(-n2cccc2)cc1 | > 4 mM (inactive) |
| Nc1ccc2c(c1)C(=O)OC2 | > 4 mM (inactive) |
| CNC(=O)Oc1ccc2c(c1)[C@]1(C)CCN(C)[C@@H]1N2C | > 4 mM (inactive) |
| O=C(NCc1cccs1)c1ccncc1 | > 4 mM (inactive) |
| CNc1nnc(Cc2csc(N)n2)s1 | > 4 mM (inactive) |
| NCc1ccc(N2CCOCC2)cc1 | > 4 mM (inactive) |
| COc1ccc(-c2cc(=O)c3c(O)c(OC)c(O[C@H]4O[C@H](CO[C@@H]5O[C@@H](C)[C@H](O)[C@@H](O)[C@H]5O)[C@@H](O)[C@H](O)[C@H]4O)cc3o2)cc1 | > 4 mM (inactive) |
| FC(F)(F)c1nnc2ccc(N3CCOCC3)nn12 | > 4 mM (inactive) |
| O=c1/c(=C/c2cccs2)sc2ncnn12 | > 4 mM (inactive) |
| O=C(O)C1CC(=O)N(C2Cc3ccccc3C2)C1 (stereo unspecified) | > 4 mM (inactive) |
| NC1Cc2ccccc2C1 | > 4 mM (inactive) |
| Cc1ccc2[nH]cc(CCN)c2c1 | > 4 mM (inactive) |
| S=C(NC1CC1)NN1CCOCC1 | > 4 mM (inactive) |
| N#Cc1cc(-c2ccccc2)oc1N | > 4 mM (inactive) |
| O=C(O)C1C(=O)NCC1c1ccccc1 (stereo unspecified) | > 4 mM (inactive) |

From PubChem BioAssay AID1549 (Sanford-Burnham Center for Chemical Genomics, 2009)
